Data published in PMC4552448 (Journal of medicinal chemistry, 2015).

Tests used:
Assay type in all cases: cell-based
[1] = system: RD rhabdomyosarcoma cells; experiment: Growth inhibition, MTT, RD; details: Rhabdomyosarcoma cell, 48 h, read-out: IC50 ± SD RD
[2] = system: OVCAR-8 ovarian carcinoma cells; experiment: Growth inhibition of OVCAR-8 cells; details: Homo sapiens, OVCAR-8, 96 h, read-out: IC50 ± SD OVCAR-8
[3] = system: HepG2 hepatocellular carcinoma cells; experiment: Growth inhibition, MTT, HepG2; details: Homo sapiens, HepG2, 48 h, read-out: IC50 ± SD HepG2
[4] = system: HeLa cells; experiment: NKG2D and DNAM-1 ligand surface expression, IF and flow cytometry; details: data not shown

Row | Compound | IC50 [1] [nM] | IC50 [2] [nM] | IC50 [3] [nM] | induction of the NKG2D and DNAM-1 ligands [4]
1 | CC[C@]1(O)C[C@@H]2CN(CCc3c([nH]c4ccccc34)[C@@](C(=O)OC)(c3cc4c(cc3OC)N(C)[C@H]3[C@@](O)(C(=O)OC)[C@H](OC(C)=O)[C@]5(CC)C=CCN6CC[C@]43[C@@H]65)C2)C1 [VBL, vinblastine] | 53 ± 2.5 | 15 ± 7 | 81 ± 2.4 | 
2 | CC(=O)O[C@H]1C(=O)[C@@]2(C)[C@H]([C@H](OC(=O)c3ccccc3)[C@]3(O)C[C@H](OC(=O)[C@H](O)[C@@H](NC(=O)c4ccccc4)c4ccccc4)C(C)=C1C3(C)C)[C@]1(OC(C)=O)CO[C@@H]1C[C@@H]2O [PTX, Paclitaxel] | > 10000 |  |  | 
3 | COc1cc(C(=O)c2ccn(-c3cccc(N)c3)c2)cc(OC)c1OC [(1-(3-aminophenyl)-1H-pyrrol-3-yl)(3,4,5-trimethoxyphenyl)-methanone] |  |  |  | unable to induce
